Values of other authors, collected in US9333228B2, “Nutritional supplement for recovery, repair, and maintenance” (Top Doctors Labs, LLC, priority 2010, dated 2016).

Test system: osteoporotic fractures
Conditions: human clinical studies; vitamin K2 as MK-4

CC(C)=CCC/C(C)=C/CC/C(C)=C/CC/C(C)=C/CC1=C(C)C(=O)c2ccccc2C1=O [vitamin K2, menatetranone]
lower risk of osteoporotic fractures: up to 81%
